Molecules are shown by their SMILES.

This assay concerns the target transferrin receptor (hTfR) (Homo sapiens, UniProt P02786). Description: Intermolecular interaction evaluation test between transferrin receptor (hTfR) and peptide-nucleic acid conjugate using surface plasmon resonance (SPR). The class given is binding. As to the method: Intermolecular interaction evaluation test between transferrin receptor (hTfR) and peptide using surface plasmon resonance (SPR)
The various synthesized peptide-nucleic acid conjugates were tested for intermolecular interaction by surface plasmon resonance (SPR) of the peptide-nucleic acid conjugate with transferrin receptor (hTfR) using the method shown below. The specific test method is shown below.
NTA sensor chip (Global Life Science Technologies Japan Co., Ltd.) was inserted into Biacore T200 (Global Life Science Technologies Japan Co., Ltd.), prime operation was performed three times with running buffer: 10 mM HEPES pH 8.0 (Nacalai Tesque Co., Ltd.), 150 mM NaCl (Nacalai Tesque Co., Ltd.), 0.05% Tween 20 (Nacalai Tesque Co., Ltd.), 0.1% BSA (SIGMA-ALDRICH), and 1.0% DMSO (FUJIFILM Wako Pure Chemical Corporation), and equilibrated at a flow rate of 30 μL/min. 350 mM EDTA solution was reacted for 60 seconds at a flow rate of 10 μL/min, 0.5 mM NiCl2 solution (Kishida Chemical) was reacted for 60 seconds at a flow rate of 10 μL/min, and the NTA sensor chip was washed with 3 mM EDTA solution (Nacalai Tesque Co., Ltd.) for 60 seconds at a flow rate of 10 μL/min. After mixing 50 μL each of […] EDC solution (Global Life Science Technologies Japan Co., Ltd.) and […] NHS solution (Global Life Science Technologies Japan Co., Ltd.), the mixture was reacted for 420 seconds at a flow rate of 10 μL/min. 150 μL of a 0.5 μM hTfR solution was prepared by diluting with a running buffer and reacted for 300 seconds at a flow rate of 10 μL/min to immobilize hTfR on the NTA sensor chip. After immobilization, capping was performed by reacting with a 1.0 M ethanolamine aqueous solution (Global Life Science Technologies Japan Co., Ltd.) at a flow rate of 10 μL/min for 420 seconds. A peptide-nucleic acid conjugate solution adjusted to 10 mM in DMSO solution was diluted with running buffer to a final concentration of 10 μM peptide-nucleic acid conjugate solution, and 100 nM, 50 nM, 25 nM, 10 nM, 5 nM peptide-nucleic acid conjugate solutions were prepared. Using the aforementioned samples, the kinetics of the peptide against hTfR was obtained by SPR measurement.
The kinetics evaluation model was Single Cycle Kinetics, and curve fitting was performed using Biacore T200 Evaluation Software Version 3.0 (Global Life Science Technologies Japan Co., Ltd.). The obtained sensorgram was subjected to curve fitting using the least squares method, and the binding of the peptide-nucleic acid conjugate to hTfR was evaluated by determining the KD value.

Sequence of transferrin receptor (hTfR) (P02786 whole entry): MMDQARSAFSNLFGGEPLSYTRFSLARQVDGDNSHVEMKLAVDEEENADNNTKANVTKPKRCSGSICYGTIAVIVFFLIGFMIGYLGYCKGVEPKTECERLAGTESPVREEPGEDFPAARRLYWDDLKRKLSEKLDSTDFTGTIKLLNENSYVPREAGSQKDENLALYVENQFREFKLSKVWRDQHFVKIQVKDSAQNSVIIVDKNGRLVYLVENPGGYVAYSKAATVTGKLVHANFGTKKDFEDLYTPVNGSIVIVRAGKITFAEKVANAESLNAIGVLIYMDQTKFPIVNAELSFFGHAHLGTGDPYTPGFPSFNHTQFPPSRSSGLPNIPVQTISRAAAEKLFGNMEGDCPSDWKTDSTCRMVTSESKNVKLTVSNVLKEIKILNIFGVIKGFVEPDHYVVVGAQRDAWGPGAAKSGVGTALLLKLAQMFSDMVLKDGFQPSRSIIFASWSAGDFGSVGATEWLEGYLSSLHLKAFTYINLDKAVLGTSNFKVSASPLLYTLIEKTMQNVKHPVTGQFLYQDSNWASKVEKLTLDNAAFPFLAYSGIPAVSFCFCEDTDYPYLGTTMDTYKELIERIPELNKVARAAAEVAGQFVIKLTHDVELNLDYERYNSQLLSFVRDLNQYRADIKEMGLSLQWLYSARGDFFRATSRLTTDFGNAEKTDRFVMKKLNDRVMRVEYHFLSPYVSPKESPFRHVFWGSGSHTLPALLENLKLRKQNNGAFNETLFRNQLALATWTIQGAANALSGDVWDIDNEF

In general, Kd refers to the equilibrium constant for the complex coming apart. The low end stands for a tighter complex, the high end for a looser complex. In turn, `CC[C@H](C)[C@@H]1NC(=O)[C@H](Cc2ccc(O)cc2)NC(=O)[C@H](Cc2ccc(O)cc2)NC(=O)[C@H](CC(N)=O)NC(=O)[C@H](Cc2c[nH]c3ccccc23)NC(=O)[C@H](C(C)C)NC(=O)[C@H](Cc2ccccc2)N(C)C(=O)[C@H](C(C)C)NC(=O)[C@H](C)NC(=O)CSC[C@@H](C(=O)NCC(=O)N[C@@H](CCCCn2nnc3c2CCC2C(CC3)C2COC(=O)NCCOCCOCC(=O)N[C@@H](CCCNC(=N)N)C(=O)N[C@@H](CCCNC(=N)N)C(=O)N[C@@H](CCCNC(=N)N)C(=O)NCCC(=O)N2C[C@@H](COP(=O)(N(C)C)N3C[C@@H](COP(=O)(N(C)C)N4C[C@@H](COP(=O)(N(C)C)N5C[C@@H](COP(=O)(N(C)C)N6C[C@@H](COP(=O)(N(C)C)N7C[C@@H](COP(=O)(N(C)C)N8C[C@@H](COP(=O)(N(C)C)N9C[C@@H](COP(=O)(N(C)C)N%10C[C@@H](COP(=O)(N(C)C)N%11C[C@@H](COP(=O)(N(C)C)N%12C[C@@H](COP(=O)(N(C)C)N%13C[C@@H](COP(=O)(N(C)C)N%14C[C@@H](COP(=O)(N(C)C)N%15C[C@@H](COP(=O)(N(C)C)N%16C[C@@H](COP(=O)(N(C)C)N%17C[C@@H](COP(=O)(N(C)C)N%18C[C@@H](COP(=O)(N(C)C)N%19C[C@@H](COP(=O)(N(C)C)N%20C[C@@H](COP(=O)(N(C)C)N%21C[C@@H](COP(=O)(N(C)C)N%22C[C@@H](COP(=O)(N(C)C)N%23C[C@@H](COP(=O)(N(C)C)N%24C[C@@H](COP(=O)(N(C)C)N%25C[C@@H](COP(=O)(N(C)C)N%26C[C@@H](COP(=O)(N(C)C)N(C)CC(N)=O)O[C@@H](n%27cnc%28c(=O)[nH]c(N)nc%28%27)C%26)O[C@@H](n%26cc(C)c(=O)[nH]c%26=O)C%25)O[C@@H](n%25cc(C)c(=O)[nH]c%25=O)C%24)O[C@@H](n%24cnc%25c(=O)[nH]c(N)nc%25%24)C%23)O[C@@H](n%23ccc(N)nc%23=O)C%22)O[C@@H](n%22ccc(N)nc%22=O)C%21)O[C@@H](n%21cc(C)c(=O)[nH]c%21=O)C%20)O[C@@H](n%20ccc(N)nc%20=O)C%19)O[C@@H](n%19ccc(N)nc%19=O)C%18)O[C@@H](n%18cnc%19c(=O)[nH]c(N)nc%19%18)C%17)O[C@@H](n%17cnc%18c(=O)[nH]c(N)nc%18%17)C%16)O[C@@H](n%16cc(C)c(=O)[nH]c%16=O)C%15)O[C@@H](n%15cc(C)c(=O)[nH]c%15=O)C%14)O[C@@H](n%14ccc(N)nc%14=O)C%13)O[C@@H](n%13cc(C)c(=O)[nH]c%13=O)C%12)O[C@@H](n%12cnc%13c(=O)[nH]c(N)nc%13%12)C%11)O[C@@H](n%11cnc%12c(N)ncnc%12%11)C%10)O[C@@H](n%10cnc%11c(N)ncnc%11%10)C9)O[C@@H](n9cnc%10c(=O)[nH]c(N)nc%109)C8)O[C@@H](n8cnc9c(=O)[nH]c(N)nc98)C7)O[C@@H](n7cc(C)c(=O)[nH]c7=O)C6)O[C@@H](n6cnc7c(=O)[nH]c(N)nc76)C5)O[C@@H](n5cc(C)c(=O)[nH]c5=O)C4)O[C@@H](n4cc(C)c(=O)[nH]c4=O)C3)O[C@@H](n3ccc(N)nc3=O)C2)C(N)=O)NC(=O)[C@H](Cc2ccc(O)cc2)N(C)C(=O)[C@H](Cc2ccc(O)cc2)NC(=O)[C@H](CCCNC(=N)N)NC(=O)[C@H](CCCNC(=N)N)NC(=O)[C@H]([C@@H](C)CC)NC1=O` (stereo partly shown) [Example 57] yielded a Kd of less than 100 nM.
